Reference: patent publication US20240115527A1, “CXCR1/CXCR2 INHIBITORS FOR USE IN TREATING MYELOFIBROSIS” (Icahn School of Medicine at Mount Sinai, priority 2020, published 2024)

Tested on: MF CD34+ cells
Assay: Clonal assays of MF CD34+ cells; JAK2V617F allele status of picked hematopoietic colonies
Format: cell-based, human
Procedure: Individual hematopoietic colonies were randomly picked from clonal assays of CD34^+ cells from 6 MF cases and the JAK2V617F allele status was determined.
IL-8 alone increased the absolute numbers of JAK2V617F+ colonies, and the addition of Ladarixin reduced the numbers of JAK2V617F positive colonies stimulated by IL-8 (Tables 1-3).

[1] = MF4 CD34+ cells, ladarixin 10 μM + IL-8 10 ng
[2] = MF4 CD34+ cells, ladarixin 10 μM + IL-8 20 ng
[3] = MF4 CD34+ cells, ladarixin 10 μM + IL-8 50 ng
[4] = MF4 CD34+ cells, ladarixin 10 μM + IL-8 100 ng
[5] = MF4 CD34+ cells, ladarixin 10 μM, no IL-8
[6] = MF4 CD34+ cells, ladarixin 20 μM + IL-8 20 ng
[7] = MF4 CD34+ cells, ladarixin 20 μM, no IL-8
[8] = MF5 CD34+ cells, ladarixin 10 μM + IL-8 10 ng
[9] = MF5 CD34+ cells, ladarixin 10 μM + IL-8 20 ng
[10] = MF5 CD34+ cells, ladarixin 10 μM + IL-8 50 ng
[11] = MF5 CD34+ cells, ladarixin 10 μM + IL-8 100 ng
[12] = MF5 CD34+ cells, ladarixin 10 μM, no IL-8
[13] = MF5 CD34+ cells, ladarixin 20 μM + IL-8 20 ng
[14] = MF5 CD34+ cells, ladarixin 20 μM, no IL-8
[15] = MF6 CD34+ cells, ladarixin 10 μM + IL-8 10 ng
[16] = MF6 CD34+ cells, ladarixin 10 μM + IL-8 20 ng
[17] = MF6 CD34+ cells, ladarixin 10 μM + IL-8 50 ng
[18] = MF6 CD34+ cells, ladarixin 10 μM + IL-8 100 ng
[19] = MF6 CD34+ cells, ladarixin 10 μM, no IL-8
[20] = MF6 CD34+ cells, ladarixin 20 μM + IL-8 20 ng
[21] = MF6 CD34+ cells, ladarixin 20 μM, no IL-8

C[C@@H](C(=O)NS(C)(=O)=O)c1ccc(OS(=O)(=O)C(F)(F)F)cc1 [Ladarixin, R(-)-2-[(4′-trifluoromethanesulfonyloxy)phenyl]-N-methanesulfonyl propionamide]
number of colonies, WT (JAK2 wild type) (MF3 CD34+ cells, ladarixin 20 μM, no IL-8): 35
number of colonies, Heter (JAK2V617F heterozygous) [1]: 137
number of colonies, Homo (JAK2V617F homozygous) [1]: 0
number of colonies, Wild (JAK2 wild type) [1]: 0
number of colonies, Heter (JAK2V617F heterozygous) [2]: 113
number of colonies, Homo (JAK2V617F homozygous) [2]: 0
number of colonies, Wild (JAK2 wild type) [2]: 0
number of colonies, Heter (JAK2V617F heterozygous) [3]: 137
number of colonies, Homo (JAK2V617F homozygous) [3]: 0
number of colonies, Wild (JAK2 wild type) [3]: 0
number of colonies, Heter (JAK2V617F heterozygous) [4]: 112
number of colonies, Homo (JAK2V617F homozygous) [4]: 7
number of colonies, Wild (JAK2 wild type) [4]: 0
number of colonies, Heter (JAK2V617F heterozygous) [5]: 163
number of colonies, Homo (JAK2V617F homozygous) [5]: 23
number of colonies, Wild (JAK2 wild type) [5]: 0
number of colonies, Heter (JAK2V617F heterozygous) [6]: 134
number of colonies, Homo (JAK2V617F homozygous) [6]: 0
number of colonies, Wild (JAK2 wild type) [6]: 0
number of colonies, Heter (JAK2V617F heterozygous) [7]: 142
number of colonies, Homo (JAK2V617F homozygous) [7]: 0
number of colonies, Wild (JAK2 wild type) [7]: 0
number of colonies, Heter (JAK2V617F heterozygous) [8]: 0
number of colonies, Homo (JAK2V617F homozygous) [8]: 0
number of colonies, Wild (JAK2 wild type) [8]: 148
number of colonies, Heter (JAK2V617F heterozygous) [9]: 0
number of colonies, Homo (JAK2V617F homozygous) [9]: 0
number of colonies, Wild (JAK2 wild type) [9]: 138
number of colonies, Heter (JAK2V617F heterozygous) [10]: 0
number of colonies, Homo (JAK2V617F homozygous) [10]: 0
number of colonies, Wild (JAK2 wild type) [10]: 151
number of colonies, Heter (JAK2V617F heterozygous) [11]: 0
number of colonies, Homo (JAK2V617F homozygous) [11]: 0
number of colonies, Wild (JAK2 wild type) [11]: 144
number of colonies, Heter (JAK2V617F heterozygous) [12]: 0
number of colonies, Homo (JAK2V617F homozygous) [12]: 0
number of colonies, Wild (JAK2 wild type) [12]: 107
number of colonies, Heter (JAK2V617F heterozygous) [13]: 0
number of colonies, Homo (JAK2V617F homozygous) [13]: 0
number of colonies, Wild (JAK2 wild type) [13]: 131
number of colonies, Heter (JAK2V617F heterozygous) [14]: 0
number of colonies, Homo (JAK2V617F homozygous) [14]: 0
number of colonies, Wild (JAK2 wild type) [14]: 141
number of colonies, Heter (JAK2V617F heterozygous) [15]: 0
number of colonies, Homo (JAK2V617F homozygous) [15]: 0
number of colonies, Wild (JAK2 wild type) [15]: 119
number of colonies, Heter (JAK2V617F heterozygous) [16]: 0
number of colonies, Homo (JAK2V617F homozygous) [16]: 0
number of colonies, Wild (JAK2 wild type) [16]: 121
number of colonies, Heter (JAK2V617F heterozygous) [17]: 0
number of colonies, Homo (JAK2V617F homozygous) [17]: 0
number of colonies, Wild (JAK2 wild type) [17]: 122
number of colonies, Heter (JAK2V617F heterozygous) [18]: 0
number of colonies, Homo (JAK2V617F homozygous) [18]: 0
number of colonies, Wild (JAK2 wild type) [18]: 119
number of colonies, Heter (JAK2V617F heterozygous) [19]: 0
number of colonies, Homo (JAK2V617F homozygous) [19]: 0
number of colonies, Wild (JAK2 wild type) [19]: 119
number of colonies, Heter (JAK2V617F heterozygous) [20]: 0
number of colonies, Homo (JAK2V617F homozygous) [20]: 0
number of colonies, Wild (JAK2 wild type) [20]: 106
number of colonies, Heter (JAK2V617F heterozygous) [21]: 0
number of colonies, Homo (JAK2V617F homozygous) [21]: 0
number of colonies, Wild (JAK2 wild type) [21]: 105
numbers of JAK2V617F positive colonies stimulated by IL-8 (addition of Ladarixin, 6 MF cases): reduced
